US20240300991A1, “NUCLEOSIDE DERIVATIVE HAVING MULTI-TARGET KINASE INHIBITORY ACTIVITY AND PHARMACEUTICAL COMPOSITION FOR PREVENTING AND TREATING CANCER COMPRISING SAME” (FUTURE MEDICINE CO., LTD., priority 2021, published 2024)

Tests used:
CSNK1D = molecular target: T1, CSNK1D (Homo sapiens, UniProt P48730); test: Kinase inhibition test (DNA-tagged kinase, affinity resin, qPCR readout); format: binding; set-up: key: (−) indicates no effect; (+) indicates weak inhibitory activity; (++) indicates a moderate level of inhibitory activity; (+++) indicates strong inhibitory activity; details: 1 μM of compound
T1 construct: made in house
Description: (§1) In order to examine the inhibitory activity of the nucleoside derivatives of the present invention synthesized in the Preparation Examples against kinases, the nucleoside derivatives were confirmed to have inhibitory activity against neurotrophic tyrosine kinase receptor type 1 or tropomyosin receptor kinase A (NTRK1), casein kinase 1 isoform delta (CSNK1D), dual specificity tyrosine-phosphorylation-regulated kinase 1A (DYRK1A), dual specificity tyrosine-phosphorylation-regulated kinase 1B (DYRK1B) and receptor-type tyrosine-protein kinase or fms like tyrosine kinase 3 or cluster of differentiation antigen 135 (CD135) or fetal liver kinase-2 (Flk2) (FLT3).
(§2) The inhibition measurement method is as follows. Most of the kinases were produced by culturing a phage in which BL21 E. coli was tagged with a kinase at 32° C. until lysis, followed by centrifugation and filtration. Further, the kinases were produced using HEK-293 cells. Thereafter, the kinases were DNA tagged for qPCR. After an affinity resin was prepared by stirring a biotin-tagged substrate onto streptavidin-coated beads for 30 minutes, a non-specifically bound substrate was washed with a buffer (SeaBlock (Pierce), 1% BSA, 0.05% Tween 20, 1 mM DTT).
(§3) For a kinase test, the kinase, the substrate, the affinity resin, and a test material dissolved in dimethyl sulfoxide were stirred together in a buffer (20% SeaBlock, 0.17×PBS, 0.05% Tween20, and 6 mM DTT) at room temperature for 1 hour. Thereafter, an affinity substrate was washed with a buffer (1×PBS, 0.05% Tween20), and then suspended in an elution buffer (1×PBS, 0.05% Tween20, 0.5 μM non-biotinylated affinity ligand), and the resulting suspension was stirred. The concentration of the kinase was quantified by qPCR.

DYRK1A = molecular target: T2, DYRK1A (Homo sapiens, UniProt Q13627); test: as above; format: binding; set-up: key: (−) indicates no effect; (+) indicates weak inhibitory activity; (++) indicates a moderate level of inhibitory activity; (+++) indicates strong inhibitory activity; details: 1 μM of compound
T2 construct: made in house
Description: as §1, §2, §3

NTRK1 = molecular target: T3, NTRK1 (Homo sapiens, UniProt P04629); test: as above; format: binding; set-up: key: (−) indicates no effect; (+) indicates weak inhibitory activity; (++) indicates a moderate level of inhibitory activity; (+++) indicates strong inhibitory activity; details: 1 μM of compound
T3 construct: made in house
Description: as §1, §2, §3

FLT3 = molecular target: T4, FLT3 (Homo sapiens, UniProt P36888); test: as above; format: binding; set-up: key: (−) indicates no effect; (+) indicates weak inhibitory activity; (++) indicates a moderate level of inhibitory activity; (+++) indicates strong inhibitory activity; details: 1 μM of compound
T4 construct: made in house
T4 sequence (P36888 27-993): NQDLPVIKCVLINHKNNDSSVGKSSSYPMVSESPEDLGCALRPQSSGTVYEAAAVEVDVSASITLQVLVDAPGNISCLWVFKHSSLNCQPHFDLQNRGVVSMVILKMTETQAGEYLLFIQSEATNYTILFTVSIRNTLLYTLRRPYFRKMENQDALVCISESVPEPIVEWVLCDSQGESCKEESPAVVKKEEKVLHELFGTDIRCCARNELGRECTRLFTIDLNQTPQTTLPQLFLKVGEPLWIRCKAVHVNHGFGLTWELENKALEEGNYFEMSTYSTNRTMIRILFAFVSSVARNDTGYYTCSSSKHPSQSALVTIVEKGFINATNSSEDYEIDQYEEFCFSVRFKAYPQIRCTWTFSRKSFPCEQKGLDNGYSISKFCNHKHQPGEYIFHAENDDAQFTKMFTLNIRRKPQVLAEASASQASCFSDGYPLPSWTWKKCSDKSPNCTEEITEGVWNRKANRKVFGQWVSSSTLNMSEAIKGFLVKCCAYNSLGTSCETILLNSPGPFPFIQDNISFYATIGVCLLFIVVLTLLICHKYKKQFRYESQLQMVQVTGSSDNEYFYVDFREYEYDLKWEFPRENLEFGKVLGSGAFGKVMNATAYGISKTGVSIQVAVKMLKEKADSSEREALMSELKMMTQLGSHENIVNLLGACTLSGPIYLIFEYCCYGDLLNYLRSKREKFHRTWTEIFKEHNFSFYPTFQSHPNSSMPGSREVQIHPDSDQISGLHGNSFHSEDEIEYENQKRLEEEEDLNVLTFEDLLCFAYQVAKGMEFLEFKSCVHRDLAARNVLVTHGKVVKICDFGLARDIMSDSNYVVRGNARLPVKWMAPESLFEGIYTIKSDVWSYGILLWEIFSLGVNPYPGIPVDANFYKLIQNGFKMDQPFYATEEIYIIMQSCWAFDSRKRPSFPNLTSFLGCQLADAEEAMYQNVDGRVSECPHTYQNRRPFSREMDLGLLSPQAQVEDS
Description: as §1, §2, §3

DYRK1B = molecular target: T5, DYRK1B (Homo sapiens, UniProt Q9Y463); test: as above; format: binding; set-up: key: (−) indicates no effect; (+) indicates weak inhibitory activity; (++) indicates a moderate level of inhibitory activity; (+++) indicates strong inhibitory activity; details: 1 μM of compound
T5 construct: made in house
Description: as §1, §2, §3

[1] = system: HCT116 (colon cancer cells); test: Inhibitory activity against cancer cells (sulforhodamine B staining); format: cell-based; details: 3 days, SRB staining
Procedure: (§4) In order to examine the anticancer activity of the nucleoside derivatives of the present invention synthesized in the Preparation Examples, the ICso of each of A549 (lung cancer cells), HCT116 (colon cancer cells), MDA-MB-231 (breast cancer cells), SK-Hep-1 (liver cancer cells), SNU638 (stomach cancer cells) and PC-3 (prostate cancer cells) against cancer cells was measured.
(§5) The test method is as follows. Cells were allowed to stand for 1 day and set as a control on day 0. Further, after a test material was added to the cells, the cells were allowed to stand for 3 days. Thereafter, the cells were stained with 1% acetic acid and 0.4% sulforhodamine B. The stained cells were dried and dissolved in 10 mM Tris (pH 10.0). Absorbance was measured at 515 nm, and the degree of cell division was determined using the following equation. After calculation as Cell division (%)=(average absorbancetest material−average absorbanceday 0)/(average absorbance control-average absorbanceday 0)×100, the degree of cell division was calculated through a non-linear regression analysis using Table Curve 2D v5.01 (Systat Software Inc., San Jose, CA, USA).

[2] = system: PC-3 (prostate cancer cells); test: as above; format: cell-based; details: 3 days, SRB staining
Procedure: as §4, §5

[3] = system: SK-Hep-1 (liver cancer cells); test: as above; format: cell-based; details: 3 days, SRB staining
Procedure: as §4, §5

[4] = system: MDA-MB-231 (breast cancer cells); test: as above; format: cell-based; details: 3 days, SRB staining
Procedure: as §4, §5

A549 (lung cancer cells) = test: as above; format: cell-based; details: 3 days, SRB staining
Procedure: as §4, §5

[5] = system: SNU638 (stomach cancer cells); test: as above; format: cell-based; details: 3 days, SRB staining
Procedure: as §4, §5

T3 sequence (P04629 33-796): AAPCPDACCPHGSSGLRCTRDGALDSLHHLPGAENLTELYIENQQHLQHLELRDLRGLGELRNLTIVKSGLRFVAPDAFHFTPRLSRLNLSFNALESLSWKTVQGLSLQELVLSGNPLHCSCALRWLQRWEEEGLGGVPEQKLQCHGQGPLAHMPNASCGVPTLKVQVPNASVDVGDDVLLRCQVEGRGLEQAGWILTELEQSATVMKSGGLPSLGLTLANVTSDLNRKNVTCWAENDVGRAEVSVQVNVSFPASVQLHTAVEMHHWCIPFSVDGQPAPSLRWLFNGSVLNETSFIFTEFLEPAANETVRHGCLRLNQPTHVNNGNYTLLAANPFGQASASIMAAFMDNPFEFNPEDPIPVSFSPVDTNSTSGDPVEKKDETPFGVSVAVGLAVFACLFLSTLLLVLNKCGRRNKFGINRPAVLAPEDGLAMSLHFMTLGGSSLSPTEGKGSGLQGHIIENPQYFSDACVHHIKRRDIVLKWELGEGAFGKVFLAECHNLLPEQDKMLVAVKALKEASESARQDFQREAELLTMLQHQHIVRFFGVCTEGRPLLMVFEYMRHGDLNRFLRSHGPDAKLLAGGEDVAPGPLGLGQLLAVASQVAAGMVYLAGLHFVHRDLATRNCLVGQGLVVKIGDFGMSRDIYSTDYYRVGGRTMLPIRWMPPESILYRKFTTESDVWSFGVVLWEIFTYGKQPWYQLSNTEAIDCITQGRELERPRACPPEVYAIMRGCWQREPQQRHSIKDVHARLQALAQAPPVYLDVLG
T1 sequence (P48730 whole entry): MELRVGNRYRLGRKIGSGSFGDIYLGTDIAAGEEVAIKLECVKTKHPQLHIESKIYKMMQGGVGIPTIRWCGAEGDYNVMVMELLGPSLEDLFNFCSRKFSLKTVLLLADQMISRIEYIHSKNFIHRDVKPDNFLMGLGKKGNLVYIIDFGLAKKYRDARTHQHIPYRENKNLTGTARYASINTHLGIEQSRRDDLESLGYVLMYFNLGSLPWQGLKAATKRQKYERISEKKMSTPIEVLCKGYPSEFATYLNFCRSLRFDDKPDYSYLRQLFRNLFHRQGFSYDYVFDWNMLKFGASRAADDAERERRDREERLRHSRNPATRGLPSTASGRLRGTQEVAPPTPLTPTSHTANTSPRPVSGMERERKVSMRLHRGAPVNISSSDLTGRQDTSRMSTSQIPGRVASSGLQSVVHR
T5 sequence (Q9Y463 whole entry): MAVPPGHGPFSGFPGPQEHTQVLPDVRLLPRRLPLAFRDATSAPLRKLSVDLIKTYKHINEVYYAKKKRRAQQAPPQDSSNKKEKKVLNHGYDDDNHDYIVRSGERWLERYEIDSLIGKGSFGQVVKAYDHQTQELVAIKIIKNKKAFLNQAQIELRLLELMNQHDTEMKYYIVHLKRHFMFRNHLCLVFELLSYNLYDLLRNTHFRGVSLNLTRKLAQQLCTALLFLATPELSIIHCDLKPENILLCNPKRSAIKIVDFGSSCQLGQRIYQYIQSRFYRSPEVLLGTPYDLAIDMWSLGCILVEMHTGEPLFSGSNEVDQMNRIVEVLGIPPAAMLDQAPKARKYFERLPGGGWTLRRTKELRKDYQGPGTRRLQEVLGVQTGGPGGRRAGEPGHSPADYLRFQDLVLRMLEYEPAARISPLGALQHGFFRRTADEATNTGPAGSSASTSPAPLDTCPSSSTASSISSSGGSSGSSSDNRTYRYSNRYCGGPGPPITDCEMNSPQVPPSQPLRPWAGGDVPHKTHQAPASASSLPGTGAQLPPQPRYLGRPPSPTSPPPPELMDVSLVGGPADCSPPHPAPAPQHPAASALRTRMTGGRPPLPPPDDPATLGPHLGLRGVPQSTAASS

| SMILES | CSNK1D inhibitory activity (CSNK1D) | DYRK1A inhibitory activity (DYRK1A) | NTRK1 inhibitory activity (NTRK1) | FLT3 inhibitory activity (FLT3) | DYRK1B inhibitory activity (DYRK1B) | IC50 [1] [µM] | IC50 [2] [µM] | IC50 [3] [µM] | IC50 [4] [µM] | IC50 (A549 (lung cancer cells)) [µM] | IC50 [5] [µM] | IC50 ([1]; Homo sapiens, HCT-116, 72 h) [µM] | IC50 ([2]; 72 h) [µM] | IC50 ([3]; Homo sapiens, SK-HEP1, 72 h) [µM] | IC50 ([4]; Homo sapiens, 72 h) [µM] | IC50 (A549 (lung cancer cells); Homo sapiens, 72 h) [µM] | IC50 ([5]; Homo sapiens, SNU-638, 72 h) [µM] |
| --- | --- | --- | --- | --- | --- | --- | --- | --- | --- | --- | --- | --- | --- | --- | --- | --- | --- |
| C#Cc1cn([C@@H]2S[C@H](CNC(=O)c3ccccc3)[C@@H](O)[C@H]2O)c2ncnc(N)c12 [Compound 8b] | ++ | +++ | +++ | ++ | +++ | 26.3 | 29.1 | 21.2 | 32.4 | 28.6 | 23.3 | – | – | – | – | – | – |
| C#Cc1cn([C@@H]2S[C@H](CN)[C@@H](O)[C@H]2O)c2ncnc(N)c12 [Compound 10a] | +++ | +++ | +++ | +++ | ++ | 1.35 | 1.98 | 1.4 | 1.87 | 1.58 | 1.33 | – | – | – | – | – | – |
| Nc1ncnc2c1c(-c1ccccc1)cn2[C@@H]1SC[C@@H](O)[C@H]1O [Compound 13d] | ++ | ++ | ++ | – | ++ | 4.31 | 9.9 | 7.81 | 5.93 | 6.83 | 5.66 | – | – | – | – | – | – |
| C=Cc1cn([C@@H]2SC[C@@H](O)[C@H]2O)c2ncnc(N)c12 [Compound 13e] | ++ | ++ | ++ | – | ++ | 2.84 | 5.34 | 5.11 | 5.33 | 4.33 | 3.54 | – | – | – | – | – | – |
| N#Cc1cn([C@@H]2SC[C@@H](O)[C@H]2O)c2ncnc(N)c12 [Compound 13f] | ++ | ++ | ++ | – | +++ | 6.37 | 2.45 | 5.78 | 2.41 | 2.36 | 9.35 | – | – | – | – | – | – |
| NC(=O)c1cn([C@@H]2SC[C@@H](O)[C@H]2O)c2ncnc(N)c12 [Compound 13g] | +++ | ++ | +++ | – | +++ | 9.73 | 2.24 | 2.13 | 5.67 | 5.27 | 8.46 | – | – | – | – | – | – |
| C#Cc1cn([C@@H]2S[C@H](CO)[C@@H](O)[C@H]2O)c2nc(Cl)nc(N)c12 [Compound 14, (2R,3R,4S,5R)-2-(4-amino-2-chloro-5-ethynyl-7H-pyrrolo[2,3-d]pyrimidin-7-yl)-5-(hydroxymethyl)tetrahydrothiophene-3,4-diol] | ++ | +++ | ++ | – | +++ | – | – | – | – | – | – | 7.28 | 2.45 | 1.37 | 0.52 | 0.35 | 5.46 |
